# According to patent US12144800B2 (priority 2015, dated 2024):
# Like-named read-outs stand apart in the source and are kept apart here.
# Legend:
# C. perfringens spores [1] = format: cell-based, Clostridium perfringens; settings: for effect of added salt on AA pathway response / effect of added salt on BA germination pathway: potassium phosphate or sodium phosphate buffer; for effect of added salt on AA pathway response / effect of added salt on BA germination pathway / effect of added salt on BA pathway: 150 mM salt; for effect of added salt on BA pathway: spores resuspended in sodium phosphate buffer
# C. perfringens spores [2] = format: cell-based, Clostridium perfringens; settings: for induction of spore germination by bile salt in the presence of amino acids: BA pathway; for triggering of spore germination by detergent: even in the presence of excess L-alanine
# C. perfringens spores [3] = settings: with L-alanine, in place of L-phenylalanine
# C. perfringens spores [4] = assay: microbe, parasite or virus in culture; settings: Clostridium perfringens, read-out: IC50, inhibition of C. perfringens spore germination
# C. perfringens strains = format: cell-based, Clostridium perfringens
# C. perfringens spores [5] = settings: spore germination inhibition
# [6] = in the presence of theobromine, strains 1936, 1473, 1882
compound,measurement,setting,value
[Cl-].[Na+] [NaCl],effect of added salt on AA pathway response,C. perfringens spores [1],did not affect
same,effect of added salt on BA germination pathway,C. perfringens spores [1],did not affect
C[C@H](CCC(=O)O)[C@H]1CC[C@H]2[C@@H]3[C@H](O)C[C@@H]4C[C@H](O)CC[C@]4(C)[C@H]3C[C@H](O)[C@]12C [Cholate],induction or inhibition of spore germination in the presence of L-alanine,C. perfringens spores [2],did not induce or inhibit
C[C@H](CCC(=O)NCC(=O)O)[C@H]1CC[C@H]2[C@@H]3[C@H](O)C[C@@H]4C[C@H](O)CC[C@]4(C)[C@H]3C[C@H](O)[C@]12C [Glycocholate],induction of spore germination by bile salt in the presence of amino acids,C. perfringens spores [2],induced C. perfringens spore germination
[Br-].[K+] [KBr],effect of added salt on AA pathway response,C. perfringens spores [1],did not affect
same,effect of added salt on BA pathway,C. perfringens spores [1],induced the BA pathway
N[C@@H](Cc1ccc(O)cc1)C(=O)O [L-tyrosine],germination rate slower than with L-phenylalanine,C. perfringens spores [3],more than 50%
O=C([O-])O.[Na+] [sodium bicarbonate],effect of added bicarbonate on germination rate,C. perfringens spores [1],increased germination rate
"CSc1nc2ccccc2s1 [2-MTB, 2-methylthiobenzothiazole]",IC50,C. perfringens spores [4],74 µM
CCCCCCCCCCCCOS(=O)(=O)[O-].[Na+] [SDS],triggering of spore germination by detergent,C. perfringens spores [2],Neither detergent was able to trigger
[Cl-].[K+] [KCl],effect of added salt on AA pathway response,C. perfringens spores [1],did not affect
same,effect of added salt on BA pathway,C. perfringens spores [1],induced the BA pathway
Cn1cnc2c1c(=O)[nH]c(=O)n2C [theobromine],time at which spores could be detected,C. perfringens strains; [6],two days after plating
same,time of maximum sporulation levels,C. perfringens strains; [6],5-7 days post-plating
same,effect of theobromine on sporulation level,C. perfringens strains; strain 1473,decreased
same,"Theobromine, effect on sporulation","C. perfringens strains; strain 1473, inoculum BHI, peptone #3",Increases sporulation
same,"Theobromine, effect on sporulation","C. perfringens strains; strain 1473, inoculum Thioglycollate, peptone #1",Reduces sporulation
same,"Theobromine, effect on sporulation","C. perfringens strains; strain 1521, inoculum Thioglycollate, peptone #1",Required for sporulation
same,effect of theobromine on sporulation level,C. perfringens strains; strain 1882,increased
same,"Theobromine, effect on sporulation","C. perfringens strains; strain 1882, inoculum BHI, peptone #2",Increases sporulation
same,effect of theobromine on sporulation level,C. perfringens strains; strain 1936,remained unchanged
same,"Theobromine, effect on sporulation","C. perfringens strains; strain 1936, inoculum BHI, peptone #1",No effect on sporulation
same,"Theobromine, effect on sporulation","C. perfringens strains; strain 4064, inoculum BHI, peptone #1",Required for sporulation
same,"Theobromine, effect on sporulation","C. perfringens strains; strain 4104, inoculum BHI, peptone #3",Required for sporulation
same,"Theobromine, effect on sporulation","C. perfringens strains; strain 4104, inoculum Thioglycollate, peptone #3",Required for sporulation
same,"Theobromine, effect on sporulation","C. perfringens strains; strain 4121, inoculum Thioglycollate, peptone #2",Required for sporulation
same,effect on sporulation times,"C. perfringens strains; strains 1936, 1473, 1882",reduced sporulation times
same,effect of theobromine on sporulation,"C. perfringens strains; strains 4104, 4064, 1521, 4121, solid media",only sporulated robustly when theobromine was added
deoxycholate,induction or inhibition of spore germination in the presence of L-alanine,C. perfringens spores [2]; FIG. 3B,did not induce or inhibit
[Br-].[Na+] [NaBr],effect of added salt on AA pathway response,C. perfringens spores [1],did not affect
same,effect of added salt on BA germination pathway,C. perfringens spores [1],did not affect
C[C@H](CCC(=O)O)[C@H]1CC[C@H]2[C@@H]3[C@H](O)C[C@@H]4C[C@H](O)CC[C@]4(C)[C@H]3CC[C@]12C [chenodeoxycholate],induction or inhibition of spore germination in the presence of L-alanine,C. perfringens spores [2]; FIG. 3B,did not induce or inhibit
"COc1nc2ccccc2s1 [MOB, 2-methoxy benzothiazole]",inhibitory concentration compared with other analogs,C. perfringens spores [5],approximately ten times lower than other analogs
same,IC50,C. perfringens spores [4],98 µM
Triton-X-100,triggering of spore germination by detergent,C. perfringens spores [2],Neither detergent was able to trigger
C[C@H](CCC(=O)NCCS(=O)(=O)O)[C@H]1CC[C@H]2[C@@H]3[C@H](O)C[C@@H]4C[C@H](O)CC[C@]4(C)[C@H]3CC[C@]12C [taurochenodeoxycholate],induction of spore germination by bile salt in the presence of amino acids,C. perfringens spores [2],induced C. perfringens spore germination
O=C([O-])O.[K+] [potassium bicarbonate],effect of added bicarbonate on germination rate,C. perfringens spores [1],increased germination rate
OC[C@H]1O[C@H](OC[C@H]2O[C@H](O[C@]3(CO)O[C@H](CO)[C@@H](O)[C@@H]3O)[C@H](O)[C@@H](O)[C@@H]2O)[C@H](O)[C@@H](O)[C@H]1O [raffinose],sporulation with the carbon source,C. perfringens strains; 0.5% carbon source in solid medium,preferred carbon source
C[C@H](CCC(=O)NCCS(=O)(=O)O)[C@H]1CC[C@H]2[C@@H]3CC[C@@H]4C[C@H](O)CC[C@]4(C)[C@H]3C[C@H](O)[C@]12C [taurodeoxycholate],induction of spore germination by bile salt in the presence of amino acids,C. perfringens spores [2],induced C. perfringens spore germination
